According to publication PMC4224572, “Peptidomimetic inhibitors of N-myristoyltransferase from human malaria and leishmaniasis parasites” (Organic & Biomolecular Chemistry, 2014):

How the values were obtained:
PvNMT = biological target: T1, PvNMT (Plasmodium vivax, UniProt A5K1A2); test: Fluorogenic NMT inhibition assay, PvNMT; assay type: biochemical; conditions: recombinant enzyme; mean of duplicate or triplicate experiments
T1 sequence (A5K1A2 1-410): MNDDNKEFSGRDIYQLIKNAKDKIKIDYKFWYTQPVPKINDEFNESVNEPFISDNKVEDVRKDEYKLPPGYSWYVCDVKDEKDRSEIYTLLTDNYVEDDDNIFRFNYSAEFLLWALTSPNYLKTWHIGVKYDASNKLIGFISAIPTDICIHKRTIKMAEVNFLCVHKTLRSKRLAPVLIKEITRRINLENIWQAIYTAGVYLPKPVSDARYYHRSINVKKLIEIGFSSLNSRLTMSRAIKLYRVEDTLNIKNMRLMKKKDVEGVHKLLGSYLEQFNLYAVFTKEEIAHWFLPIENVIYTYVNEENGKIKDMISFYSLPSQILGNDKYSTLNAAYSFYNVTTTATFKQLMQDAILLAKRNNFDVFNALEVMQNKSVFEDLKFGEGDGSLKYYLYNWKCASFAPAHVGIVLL
From the text: (§1) 2-Methylimidazolyl analogues were synthesized building on the hypothesis that 2-methylimidazole (pK a ∼ 7.9)[18] is a reasonable mimetic for N-terminal Gly in the peptide substrate (pK a ∼ 8.0).[19] To cover a range of basicity, imidazolyl (pK a ∼ 7.0) and amine analogues (pK a ∼ 10.0) were also synthesized, each exploring a range of chain lengths (n) (Table 1). To probe versatility at the C-terminus, primary amides, carboxylic acids, 2-cyclohexylethyl and 2-(1-cyclohexenyl)ethyl amides were incorporated. Using a previously reported fluorogenic assay,[20] inhibitors were tested against the parasitic enzymes and HsNMT1 in order to explore their selectivity against a relevant host enzyme. […] Further reduction of the chain length (11 and 12, n = 8 and 7, respectively) led to loss of detectable activity against Plasmodium NMTs and significant loss of activity against LdNMT and HsNMT1.

PfNMT = biological target: T2, PfNMT (Plasmodium falciparum, UniProt Q9U419); test: Fluorogenic NMT inhibition assay, PfNMT; assay type: biochemical; conditions: recombinant enzyme; mean of duplicate or triplicate experiments
T2 sequence (Q9U419 1-410): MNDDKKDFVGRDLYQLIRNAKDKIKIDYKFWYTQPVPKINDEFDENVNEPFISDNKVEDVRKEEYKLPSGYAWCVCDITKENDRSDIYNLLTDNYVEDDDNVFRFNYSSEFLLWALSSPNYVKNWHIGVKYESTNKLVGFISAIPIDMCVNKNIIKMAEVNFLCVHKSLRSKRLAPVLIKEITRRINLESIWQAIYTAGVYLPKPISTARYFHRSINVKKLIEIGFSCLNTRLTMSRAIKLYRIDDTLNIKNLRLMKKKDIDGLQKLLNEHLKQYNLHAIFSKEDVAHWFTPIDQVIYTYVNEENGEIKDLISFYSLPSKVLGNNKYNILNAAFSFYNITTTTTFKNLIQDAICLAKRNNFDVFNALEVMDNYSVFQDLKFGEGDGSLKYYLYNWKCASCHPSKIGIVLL
From the text: as §1

LdNMT = test: Fluorogenic NMT inhibition assay, LdNMT; assay type: biochemical, L. donovani; conditions: recombinant enzyme; mean of duplicate or triplicate experiments
From the text: as §1

HsNMT1 = biological target: T3, HsNMT1 (Homo sapiens, UniProt P30419); test: Fluorogenic NMT inhibition assay, HsNMT1; assay type: biochemical, H. sapiens; conditions: mean of duplicate or triplicate experiments
T3 sequence (P30419 1-496): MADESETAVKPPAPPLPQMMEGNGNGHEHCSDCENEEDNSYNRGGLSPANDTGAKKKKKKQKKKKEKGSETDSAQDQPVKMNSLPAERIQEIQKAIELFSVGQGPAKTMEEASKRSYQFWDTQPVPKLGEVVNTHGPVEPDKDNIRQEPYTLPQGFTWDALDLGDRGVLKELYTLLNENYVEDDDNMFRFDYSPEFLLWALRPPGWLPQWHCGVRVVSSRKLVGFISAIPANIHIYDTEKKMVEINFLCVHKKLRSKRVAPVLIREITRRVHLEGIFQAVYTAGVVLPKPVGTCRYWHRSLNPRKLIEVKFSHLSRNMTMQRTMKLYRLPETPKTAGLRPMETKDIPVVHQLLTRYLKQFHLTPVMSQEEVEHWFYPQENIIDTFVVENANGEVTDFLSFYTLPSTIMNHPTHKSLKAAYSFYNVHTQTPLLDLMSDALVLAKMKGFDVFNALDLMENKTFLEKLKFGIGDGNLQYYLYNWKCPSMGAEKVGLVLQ
From the text: 2-Methylimidazolyl analogues were synthesized building on the hypothesis that 2-methylimidazole (pK a ∼ 7.9)[18] is a reasonable mimetic for N-terminal Gly in the peptide substrate (pK a ∼ 8.0).[19] To cover a range of basicity, imidazolyl (pK a ∼ 7.0) and amine analogues (pK a ∼ 10.0) were also synthesized, each exploring a range of chain lengths (n) (Table 1). To probe versatility at the C-terminus, primary amides, carboxylic acids, 2-cyclohexylethyl and 2-(1-cyclohexenyl)ethyl amides were incorporated. Using a previously reported fluorogenic assay,[20] inhibitors were tested against the parasitic enzymes and HsNMT1 in order to explore their selectivity against a relevant host enzyme.

IC50 (PvNMT) [µM] | IC50 (PfNMT) [µM] | IC50 (LdNMT) [µM] | IC50 (HsNMT1) [µM] | Compound
> 100 | > 100 | 34.8 ± 3.7 | > 100 | NCCCC[C@H](NC(=O)[C@H](CO)NC(=O)CCCCCCCn1ccnc1)C(=O)NCCC1CCCCC1 [Compound 4]
> 100 | > 100 | > 100 | 21.8 ± 0.8 | Cc1nccn1CCCCCCCCCCC(=O)N[C@@H](CO)C(=O)N[C@@H](CCCCN)C(=O)NCCC1CCCCC1 [Compound 5]
> 100 | > 100 | 0.63 ± 0.01 | 7.92 ± 0.83 | Cc1nccn1CCCCCCCCCC(=O)N[C@@H](CO)C(=O)N[C@@H](CCCCN)C(=O)NCCC1CCCCC1 [Compound 6]
> 100 | > 100 | 3.42 ± 0.34 | 49.9 ± 10.6 | Cc1nccn1CCCCCCCCC(=O)N[C@@H](CO)C(=O)N[C@@H](CCCCN)C(=O)NCCC1CCCCC1 [Compound 7]
> 100 | > 100 | 1.46 ± 0.22 | 82.2 ± 14 | Cc1nccn1CCCCCCCC(=O)N[C@@H](CO)C(=O)N[C@@H](CCCCN)C(=O)NCCC1CCCCC1 [Compound 8]

Continued, molecule first:

Compound | IC50 (PvNMT) [µM] | IC50 (PfNMT) [µM] | IC50 (LdNMT) [µM] | IC50 (HsNMT1) [µM]
NCCCC[C@H](NC(=O)[C@H](CO)NC(=O)CCCCCCCCCCn1ccnc1)C(=O)NCCC1CCCCC1 [Compound 1] | > 100 | > 100 | 25.8 ± 8.2 | 47.6 ± 3.8
NCCCC[C@H](NC(=O)[C@H](CO)NC(=O)CCCCCCCCCn1ccnc1)C(=O)NCCC1CCCCC1 [Compound 2] | > 100 | > 100 | 10.6 ± 1.6 | 44 ± 7.1
NCCCC[C@H](NC(=O)[C@H](CO)NC(=O)CCCCCCCCn1ccnc1)C(=O)NCCC1CCCCC1 [Compound 3] | > 100 | > 100 | 16.7 ± 2.5 | > 100
NCCCCCCCCCCC(=O)N[C@@H](CO)C(=O)N[C@@H](CCCCN)C(=O)NCCC1CCCCC1 [Compound 9] | 1.04 ± 0.01 | > 100 | 0.14 ± 0.01 | –
NCCCCCCCCC(=O)N[C@@H](CO)C(=O)N[C@@H](CCCCN)C(=O)NCCC1CCCCC1 [Compound 11] | > 100 | > 100 | 2.01 ± 0.3 | 7.68 ± 0.86
NCCCCCCCC(=O)N[C@@H](CO)C(=O)N[C@@H](CCCCN)C(=O)NCCC1CCCCC1 [Compound 12] | > 100 | > 100 | 1.39 ± 0.18 | 6.75 ± 0.45
CC(=O)N[C@@H](CO)C(=O)N[C@@H](CCCCN)C(=O)NCCC1CCCCC1 [Compound 14] | > 100 | > 100 | > 100 | > 100
NCCCCCCCCCCC(=O)N[C@@H](CO)C(=O)N[C@@H](CCCCN)C(=O)NCCC1=CCCCC1 [Compound 15] | 12.9 ± 1.07 | > 100 | 6.6 ± 1.28 | 2.3 ± 0.14
NCCCCCCCCCC(=O)N[C@@H](CO)C(=O)N[C@@H](CCCCN)C(=O)NCCC1=CCCCC1 [Compound 16] | 3.55 ± 0.38 | > 100 | 0.44 ± 0.04 | 0.67 ± 0.04
